Data taken from PubChem BioAssay (NCI).
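Where inhibition never reached the appropriate level, the endpoint shown equals the highest concentration tested. Otherwise, values were interpolated linearly from a five-concentration, 48-hour dose response in 96-well plates. The concentration for full growth arrest is given as TGI.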

Tests used:
Experiment in all cases: NCI anticancer screen, dose series, 48 h
[1] = test system: MOLT-4 leukemia
[2] = test system: M14 melanoma
[3] = test system: MALME-3M melanoma
[4] = test system: A549 NSCLC
[5] = test system: SF-268 CNS
[6] = test system: HCT-116 colon
[7] = test system: HT29 colon
[8] = test system: CCRF-CEM leukemia
[9] = test system: HL-60(TB) leukemia
[10] = test system: RXF 393 renal
[11] = test system: OVCAR-8 ovarian
[12] = test system: HOP-62 NSCLC
[13] = test system: SNB-78 CNS
[14] = test system: HOP-92 NSCLC
[15] = test system: TK-10 renal
[16] = test system: A498 renal
[17] = test system: DMS 114 small cell lung
[18] = test system: M19-MEL melanoma
[19] = test system: UACC-62 melanoma
[20] = test system: NCI-H460 lung
[21] = test system: COLO 205 colon
[22] = test system: HCC-2998 colon
[23] = test system: CAKI-1 renal
[24] = test system: SK-MEL-2 melanoma
[25] = test system: ACHN renal
[26] = test system: NCI-H226 lung
[27] = test system: SW-620 colon
[28] = test system: OVCAR-3 ovarian
[29] = test system: UACC-257 melanoma
[30] = test system: OVCAR-4 ovarian
[31] = test system: SN12C renal
[32] = test system: LXFL 529 NSCLC
[33] = test system: NCI-H522 lung
[34] = test system: DLD-1 colon
[35] = test system: KM12 colon
[36] = test system: OVCAR-5 ovarian
[37] = test system: KM20L2 colon
[38] = test system: SNB-75 CNS
[39] = test system: SNB-19 CNS
[40] = test system: SF-539 CNS
[41] = test system: DMS 273 small cell lung
[42] = test system: HCT-15 colon
[43] = test system: XF 498 CNS
[44] = test system: SK-MEL-5 melanoma
[45] = test system: K-562 leukemia
[46] = test system: SK-MEL-28 melanoma
[47] = test system: IGROV1 ovarian
[48] = test system: EKVX NSCLC
[49] = test system: NCI-H23 lung
[50] = test system: U251 CNS
[51] = test system: 786-0 renal
[52] = test system: LOX IMVI melanoma
[53] = test system: HOP-18 NSCLC
[54] = test system: SF-295 CNS
[55] = test system: UO-31 renal
[56] = test system: SK-OV-3 ovarian
[57] = test system: RPMI-8226 leukemia
[58] = test system: SR leukemia

For `O=C(Cc1nc2ccccc2s1)C(=O)Nc1ccccc1C(F)(F)F`, the TGI [1] was over 100 µM, the TGI [2] was over 100 µM and the TGI [3] was over 100 µM. It also gave a TGI [4] of over 100 µM, a TGI [5] of over 100 µM and a TGI [6] of over 100 µM. For the same compound, the TGI [7] was over 100 µM, the TGI [8] was over 100 µM and the TGI [9] was over 100 µM. For the same compound, the TGI [10] was over 100 µM, the TGI [11] was over 100 µM and the TGI [12] was over 100 µM. For the same compound, the TGI [13] was over 100 µM, the TGI [14] was over 100 µM and the TGI [15] was over 100 µM. For the same compound, the TGI [16] was over 100 µM, the TGI [17] was over 100 µM and the TGI [18] was over 100 µM. It also gave a TGI [19] of over 100 µM, a TGI [20] of over 100 µM and a TGI [21] of over 100 µM. For the same compound, the TGI [22] was over 100 µM, the TGI [23] was over 100 µM and the TGI [24] was over 100 µM. It also gave a TGI [25] of over 100 µM, a TGI [26] of over 100 µM and a TGI [27] of over 100 µM. It also gave a TGI [28] of over 100 µM, a TGI [29] of over 100 µM and a TGI [30] of over 100 µM. The TGI [31] was over 100 µM, the TGI [32] was over 100 µM and the TGI [33] was over 100 µM. The TGI [34] was over 100 µM, the TGI [35] was over 100 µM and the TGI [36] was over 100 µM. The TGI [37] was over 100 µM, the TGI [38] was over 100 µM and the TGI [39] was over 100 µM. For the same compound, the TGI [40] was over 100 µM, the TGI [41] was over 100 µM and the TGI [42] was over 100 µM. The TGI [43] was over 100 µM, the TGI [44] was over 100 µM and the TGI [45] was over 100 µM. The TGI [46] was over 100 µM, the TGI [47] was over 100 µM and the TGI [48] was over 100 µM. The TGI [49] was over 100 µM, the TGI [50] was over 100 µM and the TGI [51] was over 100 µM. It also gave a TGI [52] of over 100 µM, a TGI [53] of over 100 µM and a TGI [54] of over 100 µM. For the same compound, the TGI [55] was over 100 µM and the TGI [56] was over 100 µM.
`COc1ccc(C2Oc3cc(OC)c(O)cc3[C@@H]2C)cc1` (some centres undefined) showed a TGI [1] of 42.8 µM, a TGI [2] of 51.2 µM and a TGI [3] of over 100 µM. The TGI [4] was over 100 µM, the TGI [5] was over 100 µM and the TGI [6] was 25.9 µM. For the same compound, the TGI [7] was over 100 µM, the TGI [8] was 44.2 µM and the TGI [9] was 47.4 µM. It also gave a TGI [10] of over 100 µM, a TGI [11] of 56.6 µM and a TGI [12] of over 100 µM. For the same compound, the TGI [13] was over 100 µM, the TGI [14] was 72.1 µM and the TGI [15] was over 100 µM. For the same compound, the TGI [16] was over 100 µM, the TGI [17] was 40.3 µM and the TGI [20] was over 100 µM. The TGI [21] was over 100 µM, the TGI [22] was over 100 µM and the TGI [23] was 96.2 µM. It also gave a TGI [24] of over 100 µM, a TGI [25] of 33.2 µM and a TGI [26] of 92.6 µM. It also gave a TGI [27] of 40.2 µM, a TGI [28] of over 100 µM and a TGI [29] of over 100 µM. The TGI [30] was over 100 µM, the TGI [32] was 32.1 µM and the TGI [33] was 38 µM. For the same compound, the TGI [34] was 44.4 µM, the TGI [35] was over 100 µM and the TGI [36] was over 100 µM. The TGI [37] was over 100 µM, the TGI [38] was 96.6 µM and the TGI [57] was 58.2 µM. It also gave a TGI [39] of 19.5 µM, a TGI [40] of over 100 µM and a TGI [41] of over 100 µM. The TGI [42] was 35.4 µM, the TGI [43] was 35.6 µM and the TGI [44] was over 100 µM. The TGI [45] was over 100 µM, the TGI [46] was over 100 µM and the TGI [48] was over 100 µM. The TGI [49] was over 100 µM, the TGI [50] was over 100 µM and the TGI [51] was 31.3 µM. For the same compound, the TGI [52] was 27.9 µM, the TGI [53] was over 100 µM and the TGI [54] was over 100 µM. The TGI [55] was 79.3 µM and the TGI [56] was over 100 µM.
Work on `CC1CCCC2(O1)OC1CC(=O)OC1C1=C2C(=O)c2ccccc2C1=O` (centres undefined) yielded a TGI [1] of 4.09 µM, a TGI [2] of 7.89 µM and a TGI [3] of 4.43 µM. For the same compound, the TGI [4] was 35.5 µM, the TGI [5] was 14.9 µM and the TGI [7] was 11 µM. It also gave a TGI [9] of 3.48 µM, a TGI [10] of 4.14 µM and a TGI [11] of 7.06 µM. For the same compound, the TGI [12] was 30.2 µM, the TGI [13] was 4.85 µM and the TGI [15] was 21 µM. For the same compound, the TGI [16] was 33.8 µM, the TGI [17] was 3.35 µM and the TGI [18] was 7.36 µM. For the same compound, the TGI [19] was 5.1 µM, the TGI [20] was 67.2 µM and the TGI [21] was 5.19 µM. For the same compound, the TGI [22] was 8.7 µM, the TGI [23] was 7.13 µM and the TGI [24] was 6.11 µM. It also gave a TGI [25] of 15 µM, a TGI [26] of 4.51 µM and a TGI [27] of 6.42 µM. The TGI [28] was 10.5 µM, the TGI [29] was 3.95 µM and the TGI [30] was 3.83 µM. It also gave a TGI [31] of 4.77 µM, a TGI [32] of 2.76 µM and a TGI [33] of 3.65 µM. It also gave a TGI [35] of 31.7 µM, a TGI [36] of 35 µM and a TGI [37] of 16 µM. It also gave a TGI [38] of 23.7 µM, a TGI [57] of 4.27 µM and a TGI [39] of 30.5 µM. For the same compound, the TGI [40] was 19.9 µM, the TGI [41] was 3.82 µM and the TGI [42] was 8.04 µM. The TGI [43] was 8.42 µM, the TGI [44] was 4.14 µM and the TGI [46] was 4.75 µM. The TGI [47] was 6.87 µM, the TGI [48] was 14.2 µM and the TGI [49] was 19.7 µM. For the same compound, the TGI [50] was 32.5 µM, the TGI [51] was 3.85 µM and the TGI [52] was 9.29 µM. For the same compound, the TGI [54] was 32 µM, the TGI [55] was 5.41 µM and the TGI [56] was 30 µM.
`COC(=O)c1c(OC(=O)c2ccccc2)noc1CC(=O)OC1C=CCCC1` (centres undefined) gave a TGI [1] of over 100 µM, a TGI [2] of over 100 µM and a TGI [3] of over 100 µM. It also gave a TGI [4] of over 100 µM, a TGI [5] of over 100 µM and a TGI [6] of over 100 µM. For the same compound, the TGI [8] was over 100 µM, the TGI [9] was over 100 µM and the TGI [10] was over 100 µM. For the same compound, the TGI [11] was over 100 µM, the TGI [12] was over 100 µM and the TGI [13] was over 100 µM. It also gave a TGI [15] of over 100 µM, a TGI [16] of over 100 µM and a TGI [17] of over 100 µM. For the same compound, the TGI [19] was over 100 µM, the TGI [20] was over 100 µM and the TGI [21] was over 100 µM. For the same compound, the TGI [22] was over 100 µM, the TGI [23] was over 100 µM and the TGI [24] was over 100 µM. For the same compound, the TGI [25] was over 100 µM, the TGI [26] was over 100 µM and the TGI [27] was over 100 µM. It also gave a TGI [28] of over 100 µM, a TGI [29] of over 100 µM and a TGI [30] of over 100 µM. For the same compound, the TGI [31] was over 100 µM, the TGI [32] was over 100 µM and the TGI [33] was over 100 µM. The TGI [34] was over 100 µM, the TGI [35] was over 100 µM and the TGI [37] was over 100 µM. For the same compound, the TGI [38] was over 100 µM, the TGI [57] was over 100 µM and the TGI [58] was over 100 µM. It also gave a TGI [39] of over 100 µM, a TGI [40] of over 100 µM and a TGI [41] of over 100 µM. The TGI [42] was over 100 µM, the TGI [44] was 81.7 µM and the TGI [45] was over 100 µM. The TGI [46] was over 100 µM, the TGI [47] was over 100 µM and the TGI [50] was over 100 µM. It also gave a TGI [51] of over 100 µM, a TGI [53] of over 100 µM and a TGI [55] of over 100 µM. For the same compound, the TGI [56] was over 100 µM.
